Source: the Deep4Chem optical property database
One block for each compound: values may come before it.

Test: solvent given as SMILES

absorption maximum (in ClC(Cl)Cl): 506 nm
Structure (SMILES): CC1=CC(C)=[N+]2C1=C(c1ccc(I)cc1)c1c(C)cc(C)n1[B-]2(Oc1ccc(Cl)cc1)Oc1ccc(Cl)cc1

absorption maximum (in O): 444 nm
Structure (SMILES): CC[n+]1c(-c2ccccc2)c2cc(N)ccc2c2ccc(NC(N)=[NH2+])cc21

absorption maximum (in ClC(Cl)Cl): 549 nm
Structure (SMILES): CC1=[N+]2C(=C(c3c4ccccc4cc4ccccc34)c3ccc(/C=C/C(C)(C)C)n3[B-]2(F)F)C=C1

absorption maximum (in C1CCOC1): 392.5 nm
absorption maximum (in CC#N): 393 nm
absorption maximum (in CCO): 397 nm
absorption maximum (in CN(C)C=O): 404 nm
absorption maximum (in CO): 396 nm
absorption maximum (in CS(C)=O): 400.5 nm
Structure (SMILES): CSc1sc(C(C)=O)c2nn[nH]c(=O)c12

absorption maximum (in CC#N): 340 nm
absorption maximum (in O): 333 nm
Structure (SMILES): Nc1cccc2ncccc12

absorption maximum (in C1CCOC1): 365 nm
Structure (SMILES): COc1ccc(-n2c(-c3ccc(-c4cncc5ccccc45)cc3)nc3c4ccccc4c4ccccc4c32)cc1

absorption maximum (in ClC(Cl)Cl): 400 nm
Structure (SMILES): F[B-]1(F)OC(c2ccccc2)=Cc2c3ccccc3cc[n+]21

absorption maximum (in C1CCCCC1): 424 nm
Structure (SMILES): Cc1cc(C)c(B2c3cc(C(C)(C)C)cc4ccc5c6ccccc6c6cc(C(C)(C)C)cc2c6c5c34)c(C)c1

absorption maximum (in CC#N): 360 nm
absorption maximum (in CO): 364 nm
absorption maximum (in CS(C)=O): 364 nm
absorption maximum (in ClC(Cl)Cl): 365 nm
Structure (SMILES): O=C1C=CC2=Cc3ccccc3B(O)N12

absorption maximum (in ClCCl): 419 nm
Structure (SMILES): C(=C\c1cc(-c2ccc3ccccc3c2)c(/C=C/c2ccc(N(c3ccccc3)c3ccccc3)cc2)cc1-c1ccc2ccccc2c1)/c1ccc(N(c2ccccc2)c2ccccc2)cc1

absorption maximum (in CCCCCC): 499 nm
absorption maximum (in CO): 494 nm
absorption maximum (in ClCCl): 498 nm
Structure (SMILES): CC1=C2C=CC(C)=[N+]2[B-](F)(F)n2cccc21

absorption maximum (in CCO): 330 nm
Structure (SMILES): COC(=O)CNC(=O)CCNc1cccc2ccccc12

absorption maximum (in ClC(Cl)Cl): 317 nm
Structure (SMILES): CCCCCCc1ccc(-n2c3c4cccc(OC)c4nc(-c4ccc(OC)cc4)c3c3c2c2c(-c4ccc(OC)cc4)nc4c(OC)cccc4c2n3-c2ccc(CCCCCC)cc2)cc1

absorption maximum (in CC#N): 397.05 nm
absorption maximum (in CCCCCC): 394.16 nm
Structure (SMILES): O=C1c2ccccc2-c2cnccc21

absorption maximum (in ClC(Cl)Cl): 421 nm
Structure (SMILES): CCCCCCN1C(=O)C(c2ccc(-n3c4ccccc4c4ccccc43)cc2)=C(c2ccc(-n3c4ccccc4c4ccccc43)cc2)C1=O
absorption maximum (in c1ccc2c(c1)c1ccccc1n2-c1ccc(-c2ccc(-n3c4ccccc4c4ccccc43)cc2)cc1): 426 nm

absorption maximum (in ClC(Cl)Cl): 611 nm
Structure (SMILES): CC1(C)CC[N+]2=c3c(cc4c(c31)Oc1cc3c(cc1C=4c1ccccc1C(=O)O)C(c1ccccc1C(=O)O)=c1cc4c5c(c1O3)C(C)(C)CC[N+]=5CCC4)CCC2

absorption maximum (in CC#N): 334 nm
absorption maximum (in ClCCl): 353 nm
Structure (SMILES): O=c1c2ccccc2nc2n1[B-](F)(F)[n+]1ccccc1-2

absorption maximum (in ClC(Cl)Cl): 412 nm
Structure (SMILES): COc1cc(C2CC(=O)Oc3c2c2nc4ccc(C)cc4nc2c2ccccc32)cc(OC)c1OC (centres undefined)

The next lines start with the compound.

Structure (SMILES): O=Cc1ccc(C#CC(C#Cc2ccc(C=O)o2)=Cc2ccc(C=C(C#Cc3ccc(C=O)o3)C#Cc3ccc(C=O)o3)s2)o1
absorption maximum (in ClC(Cl)Cl): 516 nm

Structure (SMILES): C(#Cc1ccccc1)C(C#Cc1ccccc1)=Cc1ccc2cc(C=C(C#Cc3ccccc3)C#Cc3ccccc3)ccc2c1
absorption maximum (in ClC(Cl)Cl): 418 nm

Structure (SMILES): O=c1ccc2cc3c(cc2o1)OCC3
absorption maximum (in CC(C)O): 333 nm
absorption maximum (in CCO): 333 nm
absorption maximum (in CCOCC): 330 nm
absorption maximum (in CO): 333 nm
absorption maximum (in O): 336 nm

Structure (SMILES): CCCCN1C(=O)C2=C(c3ccc(-c4ccc5c(c4)C(C)(C)c4ccccc4-5)cc3)[N-]C(=O)C2=C1c1ccc(-c2ccc3c(c2)C(C)(C)c2ccccc2-3)cc1
absorption maximum (in ClCCl): 594 nm

Structure (SMILES): Cc1nc2cccc(-c3nc4ccc(Cl)cc4o3)c2c(=O)[nH]1
absorption maximum (in CN(C)C=O): 310 nm

Structure (SMILES): c1ccc2c(c1)c1ccc3cccc4c3c1c2c1c2cccc3ccc5c6ccccc6c(c5c32)c41
absorption maximum (in ClCCl): 625 nm

Structure (SMILES): CC1=C(C(C)(C)C)C(C)=[N+]2C1=C(C)c1c(C)c(C(C)(C)C)c(C)n1[B-]2(F)F
absorption maximum (in C1CCCCC1): 529 nm
absorption maximum (in C1CCOC1): 525.1 nm
absorption maximum (in C1COCCO1): 525.1 nm
absorption maximum (in CC#N): 520.8 nm
absorption maximum (in CC(C)=O): 522.5 nm
absorption maximum (in CC(C)CC(C)(C)C): 527.5 nm
absorption maximum (in CCC(C)C): 527.1 nm
absorption maximum (in CCCC(C)=O): 523.7 nm
absorption maximum (in CCCCCC): 527.5 nm
absorption maximum (in CCCCCCCCO): 527.3 nm
absorption maximum (in CCCCCCO): 526.7 nm
absorption maximum (in CCCCO): 526.1 nm
absorption maximum (in CCCCOC(C)=O): 524.3 nm
absorption maximum (in CCCO): 525.3 nm
absorption maximum (in CCO): 524.3 nm
absorption maximum (in CCOC(C)=O): 523.2 nm
absorption maximum (in CCOCC): 525.1 nm
absorption maximum (in CN(C)C=O): 524 nm
absorption maximum (in CNC=O): 522.3 nm
absorption maximum (in CO): 522.9 nm
absorption maximum (in COC(C)=O): 522.5 nm
absorption maximum (in OCC(F)(F)F): 521.6 nm

Structure (SMILES): COc1cc(C2=c3c(c4ccc(C(C)(C)C)cc4c4c(OC)c(OC)c(OC)cc34)=[N+]3C2=Nc2c(-c4cc(OC)c(OC)c(OC)c4)c4c5cc(OC)c(OC)c(OC)c5c5cc(C(C)(C)C)ccc5c4n2[B-]3(F)F)cc(OC)c1OC
absorption maximum (in Cc1ccccc1): 808 nm

Structure (SMILES): COC(=O)c1cc(=O)n(C)c2cc(-c3cc(OC)c(OC)c(OC)c3)sc12
absorption maximum (in CC#N): 398 nm
absorption maximum (in ClCCl): 400 nm

Structure (SMILES): CC(C)[Si](C#Cc1ccc(C#C[Si](C(C)C)(C(C)C)C(C)C)c2nc3c(ccc4ccccc43)nc12)(C(C)C)C(C)C
absorption maximum (in CCCCCC): 411 nm

Structure (SMILES): O=[N+]([O-])c1cccc(O)c1
absorption maximum (in CO): 329 nm
absorption maximum (in O): 328 nm

Structure (SMILES): CN(C)c1ccc(/C=C2\CC/C(=C\c3ccc(C#N)cc3)C2=O)cc1
absorption maximum (in C1CCOC1): 458 nm
absorption maximum (in CC#N): 456 nm
absorption maximum (in CC(C)=O): 454 nm
absorption maximum (in CC(C)O): 471 nm
absorption maximum (in CCCCO): 473 nm
absorption maximum (in CCCCOC(C)=O): 442 nm
absorption maximum (in CCCO): 473 nm
absorption maximum (in CCO): 472 nm
absorption maximum (in CCOC(=O)c1ccccc1): 459 nm
absorption maximum (in CCOC(C)=O): 446 nm
absorption maximum (in CCOCC): 438 nm
absorption maximum (in CN(C)C=O): 464 nm
absorption maximum (in CO): 473 nm
absorption maximum (in CS(C)=O): 471 nm
absorption maximum (in Cc1ccccc1): 455 nm
absorption maximum (in ClC(Cl)(Cl)Cl): 446 nm
absorption maximum (in ClC(Cl)Cl): 469 nm
absorption maximum (in ClCCl): 464 nm
absorption maximum (in Clc1ccccc1Cl): 465 nm
absorption maximum (in O=C1CCCC1): 460 nm
absorption maximum (in S=C=S): 464 nm
absorption maximum (in c1ccccc1): 457 nm
absorption maximum (in c1ccncc1): 467 nm

Structure (SMILES): CC[N+](CC)=c1ccc2c(-c3ccccc3C(=O)O)c3cc4c(-c5ccccc5C(=O)O)c5ccc(=[N+](CC)CC)cc-5oc4cc3oc-2c1
absorption maximum (in ClC(Cl)Cl): 598 nm

Structure (SMILES): Cc1ccc(S(=O)(=O)/N=c2\oc3cccc4c5c(-c6ccccc6)oc6cccc(c(c2-c2ccccc2)c34)c65)cc1
absorption maximum (in ClC(Cl)Cl): 445 nm

Structure (SMILES): O=C1CCCc2c1[nH]c1cc3c(cc21)OCO3
absorption maximum (in C1CCOC1): 337.3 nm
absorption maximum (in CC#N): 335.33 nm
absorption maximum (in CCCCCCO): 343.23 nm
absorption maximum (in CCO): 338.86 nm
absorption maximum (in CCOC(C)=O): 335.84 nm
absorption maximum (in CS(C)=O): 340.34 nm
absorption maximum (in O): 341.09 nm
absorption maximum (in c1ccccc1): 339.29 nm

Structure (SMILES): c1cnc2c(c1)c1nc(-c3ccc(-c4nc5c6cccnc6c6ncccc6c5[nH]4)cc3)[nH]c1c1cccnc12
absorption maximum (in CS(C)=O): 398 nm

Structure (SMILES): CCCC1=Cc2nc1ccc1[nH]c(cc1CCC)c1nc(c(OC(=O)CCCNC(=O)OC(C)(C)C)cc3[nH]c2cc3CCC)C(CCC)=C1
absorption maximum (in Cc1ccccc1): 645 nm

Structure (SMILES): C(/C=C/c1cc2c3c(c1)CCCN3CCC2)=C\c1ccncc1
absorption maximum (in C1COCCO1): 413 nm
absorption maximum (in CC#N): 413 nm
absorption maximum (in CCCCCCC): 403 nm
absorption maximum (in CO): 419 nm
